One assay has as its system wild oat. Nature of the assay: Test D postemergence. Type of assay: in vivo, Avena fatua. The following applies: Avena fatua, post-emergence, scale 0 to 100 (0 no effect, 100 complete control), read-out: Plant response rating, Oat, Wild. The gist of the method:
(§1)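 Solvent/surfactant formulations are sprayed pre (silt loam) or post (1–4 leaf plants, 2–18 cm). Plants stay 7–21 days in controlled conditions before a visual 0–100 score is given.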

The next assay relates to field poppy. Nature of the assay: Test D postemergence. Type of assay: in vivo, Papaver rhoeas. The following applies: Papaver rhoeas, post-emergence, scale 0 to 100 (0 no effect, 100 complete control), read-out: Plant response rating, Field Poppy. The gist of the method: as §1
For the next assay, the system named is spring wheat. The assay is described as follows: Test D postemergence. Format: in vivo, Triticum aestivum. The following applies: Triticum aestivum, post-emergence, scale 0 to 100 (0 no effect, 100 complete control), read-out: Plant response rating, Wheat, Spring. The gist of the method: as §1
The next assay concerns winter wheat. The assay is described as follows: Test D postemergence. Format: in vivo, Triticum aestivum. The following applies: Triticum aestivum, post-emergence, scale 0 to 100 (0 no effect, 100 complete control), read-out: Plant response rating, Wheat, Winter. The procedure, abridged: as §1
In another assay the test system is wild buckwheat. The assay is described as follows: Test D preemergence. Type of assay: in vivo, Polygonum convolvulus. The settings on record: Fallopia convolvulus, pre-emergence, scale 0-100, read-out: Plant response rating, Buckwheat, Wild. The procedure, abridged: as §1
Another assay deals with bromegrass, downy. The assay is described as follows: Test D postemergence. Format: in vivo, Bromus tectorum. The settings on record: Bromus tectorum, post-emergence, Postemergence, scale 0 to 100 (0 no effect, 100 complete control), read-out: Plant response rating, Bromegrass, Downy. The gist of the method: as §1
Another assay relates to kochia. The assay is described as follows: Test E postemergence. Format: in vivo, Kochia scoparia. From the text:
Seeds of plant species selected from corn (Zea mays), soybean (Glycine max), velvetleaf (Abutilon theophrasti), lambsquarters (Chenopodium album), wild poinsettia (Euphorbia heterophylla), palmer pigweed (Amaranthus palmeri), waterhemp (common waterhemp, Amaranthus rudis), surinam grass (Brachiaria decumbens), large (Lg) crabgrass (Digitaria sanguinalis), Brazilian crabgrass (Digitaria horizontalis), fall panicum (Panicum dichotomiflorum), giant foxtail (Setaria faberii), green foxtail (Setaria viridis), goosegrass (Eleusine indica), johnsongrass (Sorghum halepense), ragweed (common ragweed, Ambrosia elatior), barnyardgrass (Echinochloa crus-galli), sandbur (southern sandbur, Cenchrus echinatus), arrowleaf sida (Sida rhombifolia), Italian ryegrass (Lolium multiflorum), dayflower (Virginia (VA) dayflower, Commelina virginica), field bindweed (Convolvulus arvensis), morningglory (Ipomoea coccinea), nightshade (eastern black nightshade, Solanum ptycanthum), kochia (Kochia scoparia), yellow nutsedge (Cyperus esculentus), cocklebur (common cocklebur, Xanthium strumarium), smartweed (ladysthumb smartweed, and hairy beggarticks (Bidens pilosa), were planted into a silt loam soil and treated preemergence with test chemicals formulated in a non-phytotoxic solvent mixture which included a surfactant.
At the same time, plants from these crop and weed species and also horseweed (Canada horseweed, Conyza canadensis), waterhemp_RES1, (ALS & Triazine resistant common waterhemp, Amaranthus rudis), and waterhemp_RES2, (ALS & HPPD resistant common waterhemp, Amaranthus rudis) were planted in pots containing Redi-Earth® planting medium (Scotts Company, 14111 Scottslawn Road, Marysville, Ohio 43041) comprising spaghnum peat moss, vermiculite, wetting agent and starter nutrients were treated with postemergence applications of test chemicals formulated in the same manner. Plants ranged in height from 2 to 18 cm for postemergence treatments (1- to 4-leaf stage). Treated plants and controls were maintained in a greenhouse for 14 to 21 days, after which time all species were compared to controls and visually evaluated. Plant response ratings, summarized in Table E, are based on a scale of 0 to 100 where 0 is no effect and 100 is complete control. A dash (-) response means no test result.

The test system of a further assay is bermudagrass. The assay is described as follows: Test F preemergence. Format: in vivo, Cynodon dactylon. The following applies: 21 days, scale 0 to 100. The gist of the method:
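Preemergence application to seeded loam–sand soil, with compound delivered in a non-phytotoxic solvent plus surfactant; weed control assessed visually at 21 days (0–100 scale).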

[1] abbreviates: Postemergence, 31 g ai/ha, scale 0 to 100.
[2] abbreviates: Postemergence, 62 g ai/ha, scale 0 to 100.
Where [3] appears, read: Postemergence, 125 g ai/ha, scale 0 to 100.
Where [4] appears, read: postemergence, 16 g ai/ha, scale 0 to 100, 0 no effect, 100 complete control.

Molecules are shown by their SMILES.

Turning to `N#Cc1cccc(Oc2ncc(Cl)cn2)c1-n1cc(Br)cn1` [Compound 52, 2-(4-bromo-1H-pyrazol-1-yl)-3-[(5-chloro-2-pyrimidinyl)oxy]benzonitrile], the pest or weed control at 31 g/ha in the assay with wild oat (31 g ai/ha) was determined as 20%; in the assay with field poppy (31 g ai/ha), 60%; in the assay on wild buckwheat (31 g ai/ha) it was 10%; with bromegrass, downy (31 g ai/ha), 15%. The pest or weed control at 62 g/ha in the assay with wild oat (62 g ai/ha) was found to be 35%; in the assay with field poppy (62 g ai/ha) it was 75%; in the assay on wild buckwheat (62 g ai/ha), 50%; in the assay on bromegrass, downy (62 g ai/ha) it was 20%. Moreover, the pest or weed control at 125 g/ha with wild oat (125 g ai/ha) came out at 30%; in the assay with field poppy (125 g ai/ha), 80%; in the assay with wild buckwheat (125 g ai/ha) it was 100%; with bromegrass, downy (125 g ai/ha), 20%. In addition, the pest or weed control at 250 g/ha in the assay on wild oat (250 g ai/ha) turned out to be 35%; in the assay with field poppy (250 g ai/ha), 100%; in the assay on wild buckwheat (250 g ai/ha) it was 100%; in the assay with bromegrass, downy (250 g ai/ha), 25%. The plant injury at 31 g/ha with spring wheat (31 g ai/ha) worked out at 5%; in the assay with winter wheat (31 g ai/ha) it was 10%. Further, the plant injury at 62 g/ha in the assay on spring wheat (62 g ai/ha) amounted to 10%; with winter wheat (62 g ai/ha), 15%. Further, the figures for the plant injury at 125 g/ha in the assay with spring wheat (125 g ai/ha) and in the assay with winter wheat (125 g ai/ha) were 10% and 20%, respectively. In addition, the plant injury at 250 g/ha in the assay on spring wheat (250 g ai/ha) came to 15%; with winter wheat (250 g ai/ha), 25%. The “Plant response rating, Kochia” value in the assay with kochia (setting [1]) is listed as 50; in the assay with kochia (setting [2]) it was 55; with kochia (setting [3]), 80; with kochia (setting [4]) it was 40.

Regarding `N#Cc1cccc(Oc2ncc(F)cn2)c1-n1cc(C(F)(F)F)cn1` [Compound 79, 3-[(5-fluoro-2-pyrimidinyl)oxy]-2-[4-(trifluoromethyl)-1H-pyrazol-1-yl]benzonitrile], the “Plant response rating, Bermudagrass” value was found to be 98 in the assay with bermudagrass (16 g ai/ha); 100 in the assay with bermudagrass (31 g ai/ha); 100 in the assay on bermudagrass (62 g ai/ha); 100 in the assay with bermudagrass (125 g ai/ha); 100 in the assay on bermudagrass (250 g ai/ha). Further, the “Plant response rating, Kochia” value with kochia (setting [1]) stood at 70; with kochia (setting [2]), 80; in the assay on kochia (setting [3]) it was 75; in the assay on kochia (setting [4]), 50.

Source of the values: patent publication US9695155B2, “Herbicidal substituted pyrimidinyloxy benzene compounds” (E. I. DU PONT DE NEMOURS AND COMPANY, priority 2013, dated 2017).
